Holding throughout (experiment): inhibition of tumour cell growth, NCI panel, 48 h
For assay [1], the system named is OVCAR-3 ovarian.
The test system of assay [2] is SK-OV-3 ovarian.
Assay [3] concerns HOP-62 NSCLC.
The test system of assay [4] is TK-10 renal.
The subject of assay [5] is IGROV1 ovarian.
Assay [6] has as its system M14 melanoma.
In assay [7] the test system is SW-620 colon.
Assay [8] deals with SR leukemia.
Assay [9] concerns CCRF-CEM leukemia.
For assay [10], the system named is MOLT-4 leukemia.

The structures appear in SMILES notation.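 Results reflect a 48-hour exposure of cells in 96-well plates to compound at five concentrations. At the GI50, growth is halved. TGI marks complete inhibition of growth.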

Regarding `O=C(N/N=C/c1cc(-c2ccccc2Cl)c(-c2ccccc2Cl)o1)c1ccncc1`, the TGI in [1], in assay [2], in assay [3], in assay [4], in assay [5] and in assay [6] was more than 100 µM in each case. In addition, the TGI in assay [7] is more than 100 µM.
`O=c1[nH]/c(=C/c2ccc(OCc3ccccc3)cn2)c(=O)[nH]/c1=C/c1cccnc1`: the TGI is more than 100 µM in assay [2]; more than 100 µM in assay [3]; more than 100 µM in [8]; more than 100 µM in [4]; more than 22.8 µM in assay [6]; more than 100 µM in [7].
With `CN(C)CCCN1c2ccc3ccccc3c2Sc2cccc(Cl)c21`, the TGI in assay [9] was determined as 3.52 µM; in [1], 10.6 µM; in assay [2], 26.4 µM; in assay [10] it was 4.75 µM; in assay [3], 9.32 µM; in assay [4], 5.67 µM. Also, the TGI in assay [5] was 5.85 µM; in assay [6], 3.58 µM; in assay [7] it was 4.33 µM.
Turning to `COc1ccc(C2Oc3cc(OC)c(O)cc3[C@@H]2C)cc1` (stereo not given in full), the TGI in assay [9] is 44.2 µM; in [1], more than 100 µM; in assay [2], more than 100 µM; in assay [10], 42.8 µM; in assay [3], more than 100 µM; in assay [4], more than 100 µM. The TGI stood at 51.2 µM in [6] and 40.2 µM in [7].
Consider `O=S(=O)(CC#CCS(=O)(=O)c1ccccc1)c1ccccc1`, for which the TGI was 2.91 µM in assay [1]; 27.5 µM in assay [2]; more than 42.2 µM in [10]; 20.7 µM in [3]; more than 100 µM in [8]; 7.61 µM in assay [4]. In addition, the TGI in assay [5] was 2.94 µM; in [6] it was 4.36 µM; in assay [7] it was more than 100 µM.
For `CCC(c1ccc(N(C)C)cc1)C1NC(=S)NC1=O` (stereo not given), the TGI in assay [9], in assay [2], in assay [10], in assay [8], in [4] and in assay [5] was more than 100 µM in each case. For the same compound, the TGI in assay [6] and in [7] was more than 100 µM throughout.
With `COc1cc2c(cc1C)NC(=O)/C2=C/c1c(Cl)n(C)c2ccccc12`, the TGI was more than 100 µM in assay [9]; 15.3 µM in assay [1]; 39.8 µM in assay [2]; 72.7 µM in assay [10]; 29.5 µM in assay [3]; 30.7 µM in assay [4]. Further, the TGI was 17.1 µM in assay [5], 48.1 µM in assay [6] and more than 100 µM in assay [7].
With `Cc1cn2cc(-c3ccncc3)nc2s1`, the TGI in assay [9] is more than 78.1 µM; in [1] it was more than 100 µM; in [2] it was more than 100 µM; in assay [10], more than 100 µM; in assay [3], more than 100 µM; in assay [4] it was more than 100 µM. The TGI in [5], in assay [6] and in assay [7] was more than 100 µM throughout.
For the compound `O=c1[nH]c2cccccc-2c1-c1nc2ccccc2[nH]1`, the TGI in assay [9] was more than 100 µM; in [2] it was 51.2 µM; in assay [3], 94.8 µM; in assay [8] it was more than 100 µM; in assay [4] it was more than 100 µM; in [5], more than 100 µM. Besides, the TGI in assay [6] and in assay [7] was more than 100 µM each time.
With `O=C(CSCC(=O)N/N=C\c1cc(Br)cc(Br)c1O)N/N=C\c1cc(Br)cc(Br)c1O`, the TGI in assay [1] was 93.8 µM; in assay [2], more than 100 µM; in [10], 74.7 µM; in assay [3] it was more than 100 µM; in [8], 42 µM; in assay [4], 71.8 µM. The TGI in [5] is 66.2 µM; in assay [6] it was 34.8 µM; in assay [7], more than 100 µM.
With `Nc1cc(N)c2nc(-c3ccccc3)c(Sc3ccc(F)cc3)nc2c1`, the GI50 was 16.3 µM in [1]; 15.7 µM in assay [2]; more than 100 µM in assay [10]; 16.6 µM in [3]; 35.2 µM in assay [8]; 17.4 µM in [4]. Also, the results for the GI50 in assay [5], in [6] and in assay [7] were 25 µM, 15.9 µM and 22.8 µM, respectively. The TGI was 33.6 µM in assay [1]; 31.6 µM in assay [2]; more than 100 µM in assay [10]; 34.3 µM in [3]; more than 100 µM in [8]; 42.6 µM in assay [4]. The TGI in [5] is more than 100 µM; in assay [6], 30.8 µM; in assay [7], 49.6 µM.
Regarding `Cc1ccc(-c2c(C#N)c(O)n(NS(=O)(=O)c3ccccc3)c(=O)c2C#N)cc1`, the TGI in assay [9], in assay [2], in assay [10], in assay [3], in assay [4] and in assay [5] was more than 100 µM in each case. In addition, the TGI in assay [6] and in assay [7] was more than 100 µM throughout.
Turning to `COCN1C(=O)[C@@H]2C[C@@H](OC/C=C/CBr)CN2C(=O)c2ccccc21`, the TGI in assay [9] is more than 100 µM; in [2], 88.5 µM; in assay [10], more than 100 µM; in assay [3], 54.6 µM; in [4], 49.7 µM; in assay [5] it was 26.5 µM. In addition, the TGI in [6] is 42.9 µM; in assay [7], 45.6 µM.
`CN(C)/C=C/c1ccnc2c1C(=O)c1ccccc1C2=O`: the TGI in assay [9] was more than 56 µM; in [1], more than 100 µM; in [2], more than 100 µM; in [10], more than 64.1 µM; in assay [3], 62.6 µM; in [4], more than 100 µM. Further, the TGI in assay [5] came to 35.2 µM; in assay [6], 4.16 µM; in [7] it was 21.5 µM.

These data come from PubChem BioAssay (NCI).
